In patent US20180111893A1, “POLYCATIONIC AMPHIPHILES AND POLYMERS THEREOF AS ANTIMICROBIAL AGENTS AND METHODS USING SAME” (Temple University-Of The Commonwealth System of Higher …, priority 2015, published 2018):

Tests used:
Assay in all cases: Minimum inhibitory concentration (MIC)
Assay type in all cases: cell-based
[1] = tested on: Staphylococcus aureus (SA; MSSA SH1000); details: Table 6
Method: (§1) As used herein, the term “minimum inhibitory concentration (MIC)” refers to the lowest concentration of an antimicrobial agent that will inhibit the visible growth of a microorganism after overnight incubation. MIC values against bacteria, for example, the Gram-positive Staphylococcus aureus and Enterococcus faecalis and the Gram-negative Escherichia coli and Pseudomonas aeruginosa were determined by standard methods. See also P. A. Wayne, Methods for Dilution Antimicrobial Tests for Bacteria that Grow Aerobically; Approved Standard, Ninth Edition, 2012, CLSI Document M07-A9, Vol. 32 No. 2, which is incorporated by reference herein in its entirety.
(§2) Compounds were serially diluted two-fold from a 10% DMSO/aqueous stock solution to yield twelve test concentrations. Overnight S. aureus, E. faecalis, E. coli, P. aeruginosa, CA-MRSA, and HA-MRSA cultures diluted to ca. 10^6 cfu/mL in Mueller-Hinton media and 100 μL were inoculated into each well of a U-bottom 96-well plate (BD Biosciences, BD351177) containing 100 μL of compound solution. Plates were incubated statically at 37° C. for 72 hours upon which time wells were evaluated visually for bacterial growth. The MIC was determined as the lowest concentration of compound resulting in no bacterial growth visible to the naked eye, based on the majority of three independent experiments. Positive and negative DMSO/aqueous solution and media controls were conducted for each trial. See Peng et al., 2011, Chem. Comm. 47:4896-4898.
as §2, with “trial.” for “trial. See Peng et al., 2011, Chem. Comm. 47:4896-4898.”

[2] = tested on: community-acquired methicillin-resistant Staphylococcus aureus CA-MRSA (USA300-0114); details: for MIC CA-MRSA: Table 6; for difference in MIC of monoQAC versus triscationic analog against CA-MRSA: monocationic n,0,0 vs triscationic n,1,1; for potency against CA-MRSA: dye-based monoQACs
Method: as §1, §2
as §2, with “trial.” for “trial. See Peng et al., 2011, Chem. Comm. 47:4896-4898.”

[3] = tested on: Enterococcus faecalis (OG1RF); details: Table 6
Method: as §1, §2
as §2, with “trial.” for “trial. See Peng et al., 2011, Chem. Comm. 47:4896-4898.”

[4] = tested on: Escherichia coli (MC4100); details: Table 6
Method: as §1, §2
as §2, with “trial.” for “trial. See Peng et al., 2011, Chem. Comm. 47:4896-4898.”

[5] = tested on: Pseudomonas aeruginosa (PAO1); details: Table 6
Method: as §1, §2
as §2, with “trial.” for “trial. See Peng et al., 2011, Chem. Comm. 47:4896-4898.”

[6] = tested on: hospital-acquired methicillin-resistant Staphylococcus aureus HA-MRSA (ATCC 33591); details: Table 6
Method: as §1, §2
as §2, with “trial.” for “trial. See Peng et al., 2011, Chem. Comm. 47:4896-4898.”

Row | Structure (SMILES) | MIC SA [1] [µM] | MIC CA-MRSA [2] [µM] | MIC EF [3] [µM] | MIC EC [4] [µM] | MIC PA [5] [µM] | MIC HA-MRSA [6] [µM] | MIC against CA-MRSA ([2]; dye-based QACs) [µM] | difference in MIC/activity between SA and CA-MRSA ([2]; dye-based QACs, in words) | difference in MIC of monoQAC versus triscationic analog against CA-MRSA [2] | potency against CA-MRSA ([2]; in words) | increase in MIC against CA-MRSA compared to SA ([2]; dye-based QACs, bacteria with vs without efflux pumps) [fold]
1 | CCCCCCCCCCCCC[N+](C)(C)CCCN(CCC[N+](C)(C)CCCCCCCCCCCCC)CCC[N+](C)(C)CCCCCCCCCCCCC [sT-13,13,13,0] | 1 | 0.5 | 1 | 1 | 8 | 1 | – | – | – | – | –
2 | C=CC[N+](CCC[N+](C)(C)CCCCCCCCCC)(CCC[N+](C)(C)CCCCCCCCCC)CCC[N+](C)(C)CCCCCCCCCC [sT-10,10,10,3A] | 0.5 | 0.25 | 0.5 | 0.5 | 1 | 0.5 | – | – | – | – | –
3 | CCCCCCCCCC[N+](C)(C)CCC[N+](C)(CCC[N+](C)(C)CCCCCCCCCC)CCC[N+](C)(C)CCCCCCCCCC [sT-10,10,10,1] | 0.5 | 0.5 | 0.5 | 0.5 | 2 | 0.5 | – | – | – | – | –
4 | CCCCCCCCCCC[N+](C)(C)CCC[N+](C)(CCC[N+](C)(C)CCCCCCCCCCC)CCC[N+](C)(C)CCCCCCCCCCC.[Br-].[Br-].[Br-].[I-] [sT-11,11,11,1] | 0.5 | ≤0.25 | 0.25 | 0.25 | 1 | 0.5 | – | – | – | – | –
5 | C=CC[N+](CCC[N+](C)(C)CCCCCCCCCCC)(CCC[N+](C)(C)CCCCCCCCCCC)CCC[N+](C)(C)CCCCCCCCCCC [sT-11,11,11,3A] | 0.5 | 0.5 | 0.5 | 0.5 | 1 | 1 | – | – | – | – | –
6 | CCCCCCCCCC[N+](C)(C)CCCN(CCC[N+](C)(C)CCCCCCCCCC)CCC[N+](C)(C)CCCCCCCCCC [sT-10,10,10,0] | 0.5 | 0.5 | 0.5 | 1 | 2 | 0.5 | – | – | – | – | –
7 | CCCCCCCC[N+](C)(C)CCCN(CCC[N+](C)(C)CCCCCCCC)CCC[N+](C)(C)CCCCCCCC [sT-8,8,8,0] | 4 | 2 | 32 | 32 | 125 | 32 | – | – | – | – | –
8 | CCCCCCCCCCCC[N+](C)(C)CCC[N+](CCC[N+](C)(C)CCCCCCCCCCCC)(CCC[N+](C)(C)CCCCCCCCCCCC)Cc1ccccc1 [sT-12,12,12,Bn] | 1 | 0.5 | 0.5 | 0.5 | 2 | 0.5 | – | – | – | – | –
9 | CCCCCCCCCCCCCCCC[N+](CC)(CC)c1ccc(N(c2ccc([N+](C)(CC)CC)cc2)c2ccc([N+](C)(CC)CC)cc2)cc1 [TET-16,1,1] | – | – | – | – | – | – | 0.5 | no difference in activity | – | – | –
10 | CCCCCCCCCCCCCCCC[N+](CC)(CC)c1ccc(N(c2ccc(N(CC)CC)cc2)c2ccc(N(CC)CC)cc2)cc1 [TET-16,0,0] | – | – | – | – | – | – | 250 | – | 500 × | – | –
11 | CCCCCCCCCCCC[N+](C)(C)CCCN(CCC[N+](C)(C)CCCCCCCCCCCC)CCC[N+](C)(C)CCCCCCCCCCCC [sT-12,12,12,0] | 0.5 | 0.5 | 1 | 1 | 4 | 1 | – | – | – | – | –
12 | CCCCCCCCCCC[N+](C)(C)CCC[N+](CCC[N+](C)(C)CCCCCCCCCCC)(CCC[N+](C)(C)CCCCCCCCCCC)Cc1ccccc1 [sT-11,11,11,Bn] | 0.25 | ≤0.25 | 0.5 | 0.5 | 1 | ≤0.25 | – | – | – | – | –
13 | C=CC[N+](CCC[N+](C)(C)CCCCCCCCCCCCCCCC)(CCC[N+](C)(C)CCCCCCCCCCCCCCCC)CCC[N+](C)(C)CCCCCCCCCCCCCCCC [sT-16,16,16,3A] | 4 | 4 | 8 | 16 | 63 | 16 | – | – | – | – | –
14 | C=CC[N+](CCC[N+](C)(C)CCCCCCCCCCCCC)(CCC[N+](C)(C)CCCCCCCCCCCCC)CCC[N+](C)(C)CCCCCCCCCCCCC [sT-13,13,13,3A] | 2 | 1 | 1 | 1 | 4 | 1 | – | – | – | – | –
15 | CCCCCCCCCCC[N+](C)(C)c1ccc(C(c2ccccc2)c2ccc(N(C)C)cc2)cc1 (centres unmarked) [LMG-11,0] | – | – | – | – | – | – | – | – | – | quite potent | –
16 | C=CC[N+](CCC[N+](C)(C)CCCCCCCCCCCCCC)(CCC[N+](C)(C)CCCCCCCCCCCCCC)CCC[N+](C)(C)CCCCCCCCCCCCCC [sT-14,14,14,3A] | 2 | 2 | 2 | 4 | 32 | 2 | – | – | – | – | –
17 | C=CC[N+](CCC[N+](C)(C)CCCCCCCC)(CCC[N+](C)(C)CCCCCCCC)CCC[N+](C)(C)CCCCCCCC [sT-8,8,8,3A] | 1 | 1 | 16 | 4 | 125 | 8 | – | – | – | – | –
18 | CCCCCCCC[N+](C)(C)CCC[N+](C)(CCC[N+](C)(C)CCCCCCCC)CCC[N+](C)(C)CCCCCCCC [sT-8,8,8,1] | 0.5 | 1 | 16 | 4 | 250 | 16 | – | – | – | – | –
19 | C=CC[N+](CCC[N+](C)(C)CCCCCCCCCCCCCCCCCC)(CCC[N+](C)(C)CCCCCCCCCCCCCCCCCC)CCC[N+](C)(C)CCCCCCCCCCCCCCCCCC [sT-18,18,18,3A] | 2 | 2 | 32 | 32 | 125 | 16 | – | – | – | – | –
20 | CCCCCCCCCCCCCCCC[N+](C)(C)CCCN(CCC[N+](C)(C)CCCCCCCCCCCCCCCC)CCC[N+](C)(C)CCCCCCCCCCCCCCCC.[Br-].[Br-].[Br-] [sT-16,16,16,0] | 8 | 4 | 16 | 16 | 32 | 16 | – | – | – | – | –
21 | CCCCCCCCCCCCCCCCCC[N+](C)(C)CCCN(CCC[N+](C)(C)CCCCCCCCCCCCCCCCCC)CCC[N+](C)(C)CCCCCCCCCCCCCCCCCC [sT-18,18,18,0] | 8 | 4 | 16 | 32 | 63 | 32 | – | – | – | – | –
22 | CCCCCCCCCCC[N+](C)(C)CCCN(CCC[N+](C)(C)CCCCCCCCCCC)CCC[N+](C)(C)CCCCCCCCCCC [sT-11,11,11,0] | 0.5 | 0.5 | 0.5 | 0.5 | 1 | 0.5 | – | – | – | – | –
23 | CCCCCCCCCC[N+](C)(C)c1ccc(C(c2ccccc2)c2ccc(N(C)C)cc2)cc1 (centres unmarked) [LMG-10,0] | – | – | – | – | – | – | – | – | – | quite potent | –
24 | CCCCCCCCCCCCCCCCCC[N+](C)(C)c1ccc(C(c2ccc(N(C)C)cc2)c2ccc(N(C)C)cc2)cc1 [LCV-18,0,0] | – | – | – | – | – | – | – | – | same differential | – | –
25 | CCCCCCCCCCCCCC[N+](C)(C)CCCN(CCC[N+](C)(C)CCCCCCCCCCCCCC)CCC[N+](C)(C)CCCCCCCCCCCCCC [sT-14,14,14,0] | 1 | 0.5 | 2 | 4 | 16 | 2 | – | – | – | – | –
26 | CCCCCCCCCCCCCC[N+](C)(C)CCC[N+](C)(CCC[N+](C)(C)CCCCCCCCCCCCCC)CCC[N+](C)(C)CCCCCCCCCCCCCC [sT-14,14,14,1] | 4 | 2 | 2 | 4 | 32 | 2 | – | – | – | – | –
27 | CCCCCCCCCC[N+](C)(C)c1ccc(C(c2ccc([N+](C)(C)C)cc2)c2ccc([N+](C)(C)C)cc2)cc1 [LCV-10,1,1] | – | – | – | – | – | – | – | – | – | – | 32
